Laboratory results published in the supplement of paper PMC7108870.

Assays:
HEK293sieSTAT3(Y640F) [1] = assay: drug sensitivity score (DSS), cytotoxicity CellTox Green (DSS (dimensionless)); higher = more cytotoxic; extreme values may be limits of the assay; conditions: 72 h; STAT3 variant: Y640F (constitutively active)
Method in brief: (§1)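 HEK293 cells carrying a STAT3-dependent luciferase reporter and overexpressing wild-type or mutant STAT3 (20 μl at 100,000 cells/ml) were added to compounds acoustically pre-plated at 5 concentrations in 10-fold dilutions in 384-well plates. After 72 hours at 37°C and 5% CO2, CellTox Green fluorescence (485/520 nm) and then CellTiter-Glo luminescence were read on a PHERAstar FS. Values were normalised to negative and positive control wells, and a drug sensitivity score based on dose-response curve area was computed in Breeze. Each value comes from one representative of two experiments.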

HEK293sieSTAT3(wt) [2] = assay: as above; conditions: 72 h; STAT3 variant: wild type
Method in brief: as §1

HEK293sieSTAT3(Y640F) [3] = assay: drug sensitivity score (DSS), viability CellTiter-Glo (DSS (dimensionless)); higher = more growth inhibition; extreme values may be limits of the assay; conditions: 72 h; STAT3 variant: Y640F (constitutively active)
Method in brief: as §1

HEK293sieSTAT3(wt) [4] = assay: as above; conditions: 72 h; STAT3 variant: wild type
Method in brief: as §1

Row | Structure (SMILES) | drug sensitivity score (HEK293sieSTAT3(Y640F) [1]) | drug sensitivity score (HEK293sieSTAT3(wt) [2]) | drug sensitivity score (HEK293sieSTAT3(Y640F) [3]) | drug sensitivity score (HEK293sieSTAT3(wt) [4])
1 | Cn1cnc2c(F)c(Nc3ccc(Br)cc3F)c(C(=O)NOCCO)cc21 [Binimetinib] (top concentration tested 1000 nM) | 0 | 0 | 1.87 | 0.52
2 | CC(C)Oc1ccc(C(=O)N[C@H](CNC(=O)CN(C)C)Cc2ccc(-c3cn4cccc([C@H](C)O)c4n3)cc2)cc1Cl (top concentration tested 10000 nM) | 2.45 | 11.4 | 14.7 | 15.3
3 | C=CC[C@@H]1/C=C(\C)C[C@H](C)C[C@H](OC)[C@H]2O[C@@](O)(C(=O)C(=O)N3CCCC[C@H]3C(=O)O[C@H](/C(C)=C/[C@@H]3CC[C@@H](O)[C@H](OC)C3)[C@H](C)[C@@H](O)CC1=O)[C@H](C)C[C@@H]2OC [Tacrolimus] (top concentration tested 10000 nM) | 0 | 0 | 0.22 | 0.73
4 | CCCCNc1ncc(C(=O)NCc2ccc(-n3ccnc3)cc2)c(NC2CCC(O)CC2)n1 (configuration not stated) [UNC2881] (top concentration tested 2500 nM) | 0 | 3.59 | 5.94 | 4.52
5 | Cc1ccc(NC(=O)c2ccc(CN3CCN(C)CC3)cc2)cc1Nc1nccc(-c2cccnc2)n1 [Imatinib] (top concentration tested 10000 nM) | 0.42 | 5.22 | 4.88 | 7.13
6 | Cc1cnc(NC(=O)Nc2cc(Br)c(C)cc2OC[C@@H]2CNCCO2)cn1 [Rabusertib] (top concentration tested 1000 nM) | 0.03 | 1.61 | 5.38 | 5.03
7 | Cn1ncc(Cl)c1-c1cc(C(=O)N[C@H](CN)Cc2cccc(F)c2)sc1Cl [Afuresertib] (top concentration tested 1000 nM) | 0 | 0 | 6.74 | 9.38
8 | CCNC(=O)C[C@@H]1N=C(c2ccc(Cl)cc2)c2cc(OC)ccc2-n2c(C)nnc21 (top concentration tested 10000 nM) | 0.87 | 5.42 | 9.51 | 4.81
9 | COc1ncc(-c2ccc3nccc(-c4ccnnc4)c3c2)cc1NS(=O)(=O)c1ccc(F)cc1F [Omipalisib] (top concentration tested 1000 nM) | 0 | 6.37 | 18.3 | 22.1
10 | Cn1cc(C2=Nc3cc(NC(=O)C(N)C4CCCCC4)cc4c3C2=CNNC4=O)cn1 (configuration not stated) (top concentration tested 10000 nM) | 2.57 | 5.91 | 17.5 | 15.8
11 | CC[C@H](NC(=O)[C@H](C)NC)C(=O)N1C[C@@H](O)C[C@H]1Cc1c(-c2[nH]c3cc(F)ccc3c2C[C@@H]2C[C@H](O)CN2C(=O)[C@H](CC)NC(=O)[C@H](C)NC)[nH]c2cc(F)ccc12 [Birinapant] (top concentration tested 1000 nM) | 19.5 | 30.4 | 7.4 | 15.6
12 | C[C@@H](Oc1cc(-n2cnc3ccc(CN4CCN(C)CC4)cc32)sc1C(N)=O)c1ccccc1C(F)(F)F (top concentration tested 10000 nM) | 15.3 | 37.4 | 37.9 | 36.5
13 | COc1cc(C(=O)NC2CCN(C)CC2)c(F)cc1Nc1ncc2c(n1)N(C1CCCC1)CC(F)(F)C(=O)N2C [TAK-960] (top concentration tested 2500 nM) | 0.89 | 0 | 0 | 0
14 | C[C@]1(O)C[C@@H](c2nc(-c3ccc4ccc(-c5ccccc5)nc4c3)c3c(N)nccn32)C1 [Linsitinib] (top concentration tested 10000 nM) | 0 | 0 | 5.71 | 2.31
15 | COC[C@H](NC(=O)c1cnc(C)s1)C(=O)N[C@@H](COC)C(=O)N[C@@H](Cc1ccccc1)C(=O)[C@@]1(C)CO1 [Oprozomib] (top concentration tested 2500 nM) | 21.5 | 28.3 | 23.6 | 28.8
16 | O=C(O)c1ccc(O)c2ncccc12 [IOX-1] (top concentration tested 100000 nM) | 0 | 0 | 1.18 | 2.26
17 | CNC(=O)c1cc(Oc2ccc(NC(=O)Nc3cc(C(C)(C)C)nn3-c3ccc4ncccc4c3)c(F)c2)ccn1 [Rebastinib] (top concentration tested 1000 nM) | 0 | 1.16 | 0 | 0
18 | C=CC(=O)Nc1cccc(Nc2nc(Nc3ccc(N4CCN(C(C)=O)CC4)cc3OC)ncc2C(F)(F)F)c1 [Rociletinib] (top concentration tested 10000 nM) | 0.23 | 4.1 | 8.18 | 7.99
19 | Cc1cc([C@@H](C)Nc2ccccc2C(=O)O)c2nc(N3CCOCC3)cc(=O)n2c1 [AZD-6482] (top concentration tested 2500 nM) | 0 | 0.89 | 1.08 | 1.97
20 | Oc1nc(-c2ccc(C(F)(F)F)cc2)nc2c1CSCC2 [XAV-939] (top concentration tested 10000 nM) | 0 | 0 | 0.17 | 1.46
21 | CCCCC(=O)OCC(=O)[C@]1(O)Cc2c(O)c3c(c(O)c2[C@@H](O[C@H]2C[C@H](NC(=O)C(F)(F)F)[C@H](O)[C@H](C)O2)C1)C(=O)c1c(OC)cccc1C3=O [Valrubicin] (top concentration tested 5000 nM) | 0 | 0.89 | 21.9 | 22.8
22 | COc1c(OCCCN2CCOCC2)ccc2c1N=C(NC(=O)c1cnc(N)nc1)N1CCN=C21 [Copanlisib] (top concentration tested 1000 nM) | 0 | 0.34 | 15.5 | 18.3

Row | Structure (SMILES) | drug sensitivity score (HEK293sieSTAT3(Y640F) [1]) | drug sensitivity score (HEK293sieSTAT3(wt) [2]) | drug sensitivity score (HEK293sieSTAT3(Y640F) [3]) | drug sensitivity score (HEK293sieSTAT3(wt) [4])
23 | Nc1nccc(-c2c(-c3ccc(F)cc3)ncn2C2CCCCC2)n1 (top concentration tested 10000 nM) | 0 | 0 | 3.49 | 4.08
24 | Nc1cccc2c1CN(C1CCC(=O)NC1=O)C2=O (configuration not stated) [Lenalidomide] (top concentration tested 100000 nM) | 0 | 0 | 2.66 | 2.72
25 | COc1cc2nccc(Oc3ccc(NC(=O)Nc4cc(C)on4)c(Cl)c3)c2cc1OC [Tivozanib] (top concentration tested 10000 nM) | 0 | 1.14 | 4.07 | 4.13
26 | COc1ccc(-c2ccc3ncc4c(c3c2)n(-c2ccc(N3CCNCC3)c(C(F)(F)F)c2)c(=O)n4C)cn1 [NVP-BGT226] (top concentration tested 1000 nM) | 4.28 | 9.37 | 24.6 | 28
27 | C[C@@H]1CN(CC(=O)Nc2ccc3c(c2)Cc2cccc(-c4cc(=O)cc(N5CCOCC5)o4)c2S3)C[C@H](C)O1 (top concentration tested 25000 nM) | 5.17 | 8.78 | 8.24 | 9.16
28 | O=C(O)CSc1cc(NS(=O)(=O)c2ccc(Br)cc2)c2ccccc2c1O [UMI-77] (top concentration tested 100000 nM) | 5.23 | 5.12 | 10 | 13.1
29 | CC(C)C[C@H](NC(=O)[C@H](CCc1ccccc1)NC(=O)CN1CCOCC1)C(=O)N[C@@H](Cc1ccccc1)C(=O)N[C@@H](CC(C)C)C(=O)[C@@]1(C)CO1 [Carfilzomib] (top concentration tested 1000 nM) | 26.5 | 31.9 | 31.2 | 32.8
30 | O=C(NOCC1CC1)c1ccc(F)c(F)c1Nc1ccc(I)cc1Cl (top concentration tested 10000 nM) | 0 | 0 | 1.63 | 2.33
31 | NC[C@@](O)(c1ccc(Cl)cc1)c1ccc(-c2cn[nH]c2)cc1 (top concentration tested 10000 nM) | 6.08 | 6.61 | 7.85 | 6.8
32 | N#CCNC(=O)c1ccc(-c2ccnc(Nc3ccc(N4CCOCC4)cc3)n2)cc1 [Momelotinib] (top concentration tested 10000 nM) | 3.84 | 5.09 | 7.37 | 5.53
33 | NS(=O)(=O)OC[C@@H]1C[C@@H](n2ccc3c(N[C@H]4CCc5ccccc54)ncnc32)C[C@@H]1O [Pevonedistat] (top concentration tested 10000 nM) | 3.23 | 7.13 | 22.3 | 23.6
34 | Cc1cc(OCc2nnc(SC3CCCC3)n2-c2cccnc2)ccc1-c1ccc(S(C)(=O)=O)cc1 [NMS-873] (top concentration tested 10000 nM) | 6.39 | 7.29 | 11.8 | 12.5
35 | Cc1nc(NC(=O)N2CCC[C@H]2C(N)=O)sc1-c1ccnc(C(C)(C)C(F)(F)F)c1 [Alpelisib] (top concentration tested 2500 nM) | 0 | 0 | 0.49 | 3.18
36 | CC(=O)Nc1cccc(-n2c(=O)n(C3CC3)c(=O)c3c(Nc4ccc(I)cc4F)n(C)c(=O)c(C)c32)c1 [Trametinib] (top concentration tested 250 nM) | 1.69 | 0 | 0 | 0
37 | CC(=O)N(O)CCCCCNC(=O)CCC(=O)N(O)CCCCCNC(=O)CCC(=O)N(O)CCCCCN [Deferoxamine] (top concentration tested 10000 nM) | 0.01 | 1.09 | 2.48 | 3.23
38 | CNC(=O)c1ccc2cc([C@@]3(O)CCn4cncc43)ccc2c1 [Orteronel] (top concentration tested 10000 nM) | 0 | 0 | 0 | 0
39 | C[C@H]1Oc2cc(cnc2N)-c2c(nn(C)c2C#N)CN(C)C(=O)c2ccc(F)cc21 (top concentration tested 1000 nM) | 0 | 0 | 5.03 | 1.84
40 | CC(C)C(=O)Nc1ccc([N+](=O)[O-])c(C(F)(F)F)c1 [Flutamide] (top concentration tested 10000 nM) | 0 | 0 | 0.25 | 0
41 | Cc1c(Cn2c(C)nc3c(C(=O)O)cc(N4CCOCC4)cc32)cccc1C(F)(F)F (top concentration tested 10000 nM) | 0 | 0.07 | 0.96 | 3
42 | CCc1cc2c(cc1N1CCC(N3CCOCC3)CC1)C(C)(C)c1[nH]c3cc(C#N)ccc3c1C2=O [Alectinib] (top concentration tested 1000 nM) | 0 | 2.75 | 3.02 | 4.73
43 | COc1cccc2c1c(O)c(C(=O)N(C)c1ccc(C(F)(F)F)cc1)c(=O)n2C [Tasquinimod] (top concentration tested 10000 nM) | 0 | 0 | 0 | 5.07
